The term IC50 denotes the midpoint of a concentration-inhibition curve. Low values mean greater potency, high ones weaker potency.

The structures appear in SMILES notation. Some results are limits rather than exact numbers.

The values below come from patent US12441726B2, “Compounds and uses thereof” (Foghorn Therapeutics Inc., priority 2020, dated 2025).

Chain of BRG-1 (P51532 whole entry): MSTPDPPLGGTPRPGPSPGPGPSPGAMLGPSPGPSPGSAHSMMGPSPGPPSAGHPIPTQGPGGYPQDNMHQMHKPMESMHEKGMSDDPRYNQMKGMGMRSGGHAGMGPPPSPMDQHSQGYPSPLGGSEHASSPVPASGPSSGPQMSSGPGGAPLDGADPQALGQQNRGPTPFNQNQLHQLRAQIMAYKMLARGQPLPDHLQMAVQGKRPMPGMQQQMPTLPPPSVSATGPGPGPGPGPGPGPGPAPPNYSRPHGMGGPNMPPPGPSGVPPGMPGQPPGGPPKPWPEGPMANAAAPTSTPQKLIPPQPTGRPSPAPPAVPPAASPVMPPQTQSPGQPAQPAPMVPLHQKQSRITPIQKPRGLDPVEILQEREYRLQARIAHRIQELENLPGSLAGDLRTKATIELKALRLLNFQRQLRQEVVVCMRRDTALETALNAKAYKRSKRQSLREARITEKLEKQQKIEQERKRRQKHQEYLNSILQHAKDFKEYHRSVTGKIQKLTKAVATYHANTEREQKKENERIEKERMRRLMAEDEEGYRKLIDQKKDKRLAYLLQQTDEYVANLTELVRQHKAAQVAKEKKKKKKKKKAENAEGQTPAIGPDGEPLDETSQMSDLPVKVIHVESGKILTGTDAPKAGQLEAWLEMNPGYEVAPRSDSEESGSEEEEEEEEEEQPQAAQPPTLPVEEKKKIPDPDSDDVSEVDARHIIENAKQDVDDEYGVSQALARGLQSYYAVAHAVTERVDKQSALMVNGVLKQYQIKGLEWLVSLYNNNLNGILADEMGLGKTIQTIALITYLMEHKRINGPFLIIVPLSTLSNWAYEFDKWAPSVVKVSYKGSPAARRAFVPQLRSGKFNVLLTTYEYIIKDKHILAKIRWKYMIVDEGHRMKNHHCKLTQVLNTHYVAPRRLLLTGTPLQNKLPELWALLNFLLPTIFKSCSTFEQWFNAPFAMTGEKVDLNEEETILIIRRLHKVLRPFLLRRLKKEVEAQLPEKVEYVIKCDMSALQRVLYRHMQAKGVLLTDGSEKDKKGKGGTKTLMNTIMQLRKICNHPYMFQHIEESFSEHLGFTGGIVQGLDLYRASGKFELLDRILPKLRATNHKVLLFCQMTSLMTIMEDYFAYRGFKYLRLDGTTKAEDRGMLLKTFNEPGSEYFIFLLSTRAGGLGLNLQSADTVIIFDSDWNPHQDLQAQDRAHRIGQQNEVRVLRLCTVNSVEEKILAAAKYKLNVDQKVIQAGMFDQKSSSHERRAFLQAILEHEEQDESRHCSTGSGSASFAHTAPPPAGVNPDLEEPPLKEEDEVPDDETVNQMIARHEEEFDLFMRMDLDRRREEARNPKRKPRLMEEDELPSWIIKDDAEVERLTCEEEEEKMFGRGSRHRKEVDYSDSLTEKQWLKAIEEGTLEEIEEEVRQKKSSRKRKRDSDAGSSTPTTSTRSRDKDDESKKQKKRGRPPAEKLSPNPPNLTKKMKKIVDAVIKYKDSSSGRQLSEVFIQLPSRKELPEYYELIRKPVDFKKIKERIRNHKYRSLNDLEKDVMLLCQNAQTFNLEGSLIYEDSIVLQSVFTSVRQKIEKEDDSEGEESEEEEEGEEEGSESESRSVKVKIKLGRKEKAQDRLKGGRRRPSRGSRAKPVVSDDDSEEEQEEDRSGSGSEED

The first assay concerns the target BRG-1 (Homo sapiens, UniProt P51532). As to the kind of experiment: ATPase catalytic activity assay (ADP-Glo), BRG-1.
Settings: not given
`C[C@@]1(C#N)COCc2ccc(C(=O)NCc3cc4nc(-c5cccc(N6CCC6)n5)ccc4cn3)cc21` [Compound 496] registered a concentration for half-maximal inhibition (IC50) below 0.1 µM.
Regarding `C[C@@]1(F)COCc2ccc(C(=O)NCc3cc4nc(-c5ccccc5)ccc4nn3)cc21` [Compound 277], the IC50 fell in the range of 0.5 to 1 µM.
`C[C@@]1(C#N)COCc2ncc(C(=O)NCc3cc4nc(-c5cccc(C6CC6)n5)ccc4cn3)cc21` [Compound 208] returned an IC50 of 0.1 to 0.5 µM.
On the same count and under the same terms, as for `C[C@@]1(C#N)COCc2ccc(C(=O)NCc3cc4c(cn3)CCN(c3ccnc(N5CCC5)c3F)C4)cc21` [Compound 258], the figure is 0.1 to 0.5 µM; as for `CN1C(=O)Cc2ccc(-c3ccc4cnc(CNC(=O)c5ccc6c(c5)[C@](C)(C#N)COC6)cc4n3)cc21` [Compound 476], 0.5 to 1 µM; as for `C[C@@]1(C#N)COCc2ccc(C(=O)NCc3cc4nc(-c5ccnc(C6COC6)n5)ccc4cn3)cc21` [Compound 158], 0.5 to 1 µM.
Still for that read-out and setting: with `CNC(=O)c1cccc(-c2ccc3cnc(CNC(=O)c4ccc5c(c4)[C@](C)(C#N)COC5)cc3n2)c1F` [Compound 460] the figure was 0.5 to 1 µM; with `Cn1ccc2c(F)cc(-c3ccc4cnc(CNC(=O)c5ccc6c(c5)[C@](C)(C#N)COC6)cc4n3)cc2c1=O` [Compound 434], below 0.1 µM.
As to `[2H]C1([2H])OC[C@@](C)(F)c2cc(C(=O)NCc3cc4nc(-c5cncc(C6CC6)n5)ccc4cn3)cnc21` [Compound 211], the half-inhibitory concentration (IC50) was in the range of 0.5 to 1 µM.
Same read-out and setting: with `C[C@@]1(C#N)COCc2ccc(C(=O)NCc3cc(N4CC(n5ccc6ccccc65)C4)ccn3)cc21` [Compound 59] the figure was 0.5 to 1 µM; with `C[C@@]1(C#N)COCc2ccc(C(=O)NCc3cc4nc(-c5cncc(N6CC(F)C6)n5)ccc4cn3)cc21` [Compound 374], 0.1 to 0.5 µM; with `C[C@@]1(C#N)COCc2ccc(C(=O)NCc3cc(N4CCC(F)(c5ccccc5)C4)ccn3)cc21` (stereo partly drawn) [Compound 60], 0.5 to 1 µM.
Same read-out and setting: with `C[C@@]1(C#N)COCc2ccc(C(=O)NCc3cc4cc(-c5nccc(N6CCC6)n5)ccc4nn3)cc21` [Compound 335] the figure was 0.1 to 0.5 µM; with `C[C@@]1(C#N)COCc2ccc(C(=O)NCc3cc4nc(N5CCCCC5)ccc4cn3)cc21` [Compound 103], above 1 µM.
As to `C[C@@]1(C#N)COCc2ccc(C(=O)NCc3cc([C@H]4C[C@H](c5cccc(N6CCOCC6)n5)C4)ccn3)cc21` [Compound 79], the half-inhibitory concentration (IC50) lay within 0.5 to 1 µM.
`C[C@@]1(C#N)COc2ccc(C(=O)NCc3cc4nc(-c5ccccc5)sc4cn3)cc21` [Compound 117]: the IC50 is above 1 µM.
`C[C@@]1(C#N)COCc2ccc(C(=O)NCc3cc4c(cn3)CCN(c3ccnc(C5CC5)n3)C4)cc21` [Compound 327] registered a half-maximal inhibitory concentration (IC50) above 1 µM.
For `C[C@@]1(C#N)COCc2ccc(C(=O)NCc3cc(N4CCc5ccccc5CC4)ccn3)cc21` [Compound 50], the concentration for half-maximal inhibition (IC50) is above 1 µM.

The assay is the same for the next values; noted with them: 1 h, read-out: BRG1 Max % Inhibition, ADP-Glo, 30 nM BRG-1, 400 μM ATP.
On to `C[C@@]1(C#N)COCc2ccc(C(=O)NCc3cc4nc(-c5cccc(N6CCC6)n5)ccc4cn3)cc21` [Compound 496], for which the Emax worked out at 92%.
For the molecule `C[C@@]1(F)COCc2ccc(C(=O)NCc3cc4nc(-c5ccccc5)ccc4nn3)cc21` [Compound 277], the Emax was determined as 69%.
As for `C[C@@]1(C#N)COCc2ncc(C(=O)NCc3cc4nc(-c5cccc(C6CC6)n5)ccc4cn3)cc21` [Compound 208], the Emax worked out at 92%.
`C[C@@]1(C#N)COCc2ccc(C(=O)NCc3cc4c(cn3)CCN(c3ccnc(N5CCC5)c3F)C4)cc21` [Compound 258]: the Emax was determined as 75%.
On the same count and under the same terms, with `CN1C(=O)Cc2ccc(-c3ccc4cnc(CNC(=O)c5ccc6c(c5)[C@](C)(C#N)COC6)cc4n3)cc21` [Compound 476] the figure was 63%; with `C[C@@]1(C#N)COCc2ccc(C(=O)NCc3cc4nc(-c5ccnc(C6COC6)n5)ccc4cn3)cc21` [Compound 158], 75%; with `CNC(=O)c1cccc(-c2ccc3cnc(CNC(=O)c4ccc5c(c4)[C@](C)(C#N)COC5)cc3n2)c1F` [Compound 460], 75%.
The same measure, in the same setting: as for `Cn1ccc2c(F)cc(-c3ccc4cnc(CNC(=O)c5ccc6c(c5)[C@](C)(C#N)COC6)cc4n3)cc2c1=O` [Compound 434], the figure is 92%.
`[2H]C1([2H])OC[C@@](C)(F)c2cc(C(=O)NCc3cc4nc(-c5cncc(C6CC6)n5)ccc4cn3)cnc21` [Compound 211]: the Emax was 82%.
Regarding `C[C@@]1(C#N)COCc2ccc(C(=O)NCc3cc(N4CC(n5ccc6ccccc65)C4)ccn3)cc21` [Compound 59], the Emax is 56%.
Still for that read-out and setting: with `C[C@@]1(C#N)COCc2ccc(C(=O)NCc3cc4nc(-c5cncc(N6CC(F)C6)n5)ccc4cn3)cc21` [Compound 374] the figure was 94%; with `C[C@@]1(C#N)COCc2ccc(C(=O)NCc3cc(N4CCC(F)(c5ccccc5)C4)ccn3)cc21` (stereo partly drawn) [Compound 60], 75%; with `C[C@@]1(C#N)COCc2ccc(C(=O)NCc3cc4cc(-c5nccc(N6CCC6)n5)ccc4nn3)cc21` [Compound 335], 84%.
For `C[C@@]1(C#N)COCc2ccc(C(=O)NCc3cc4nc(N5CCCCC5)ccc4cn3)cc21` [Compound 103], the Emax turned out to be 71%.
As to `C[C@@]1(C#N)COCc2ccc(C(=O)NCc3cc([C@H]4C[C@H](c5cccc(N6CCOCC6)n5)C4)ccn3)cc21` [Compound 79], the Emax was 74%.
Consider `C[C@@]1(C#N)COc2ccc(C(=O)NCc3cc4nc(-c5ccccc5)sc4cn3)cc21` [Compound 117], for which the Emax is 27%.
Consider `C[C@@]1(C#N)COCc2ccc(C(=O)NCc3cc4c(cn3)CCN(c3ccnc(C5CC5)n3)C4)cc21` [Compound 327], for which the Emax was 48%.
Same read-out and setting: as for `C[C@@]1(C#N)COCc2ccc(C(=O)NCc3cc(N4CCc5ccccc5CC4)ccn3)cc21` [Compound 50], the figure is 53%.

In a further assay the target is BRM (Homo sapiens, UniProt P51531). As to the kind of experiment: ATPase catalytic activity assay (ADP-Glo), BRM. The following applies: 30 nM BRM, 400 μM ATP. (In ADP-Glo the light output rises with the ADP produced.)
Chain of BRM (P51531 whole entry): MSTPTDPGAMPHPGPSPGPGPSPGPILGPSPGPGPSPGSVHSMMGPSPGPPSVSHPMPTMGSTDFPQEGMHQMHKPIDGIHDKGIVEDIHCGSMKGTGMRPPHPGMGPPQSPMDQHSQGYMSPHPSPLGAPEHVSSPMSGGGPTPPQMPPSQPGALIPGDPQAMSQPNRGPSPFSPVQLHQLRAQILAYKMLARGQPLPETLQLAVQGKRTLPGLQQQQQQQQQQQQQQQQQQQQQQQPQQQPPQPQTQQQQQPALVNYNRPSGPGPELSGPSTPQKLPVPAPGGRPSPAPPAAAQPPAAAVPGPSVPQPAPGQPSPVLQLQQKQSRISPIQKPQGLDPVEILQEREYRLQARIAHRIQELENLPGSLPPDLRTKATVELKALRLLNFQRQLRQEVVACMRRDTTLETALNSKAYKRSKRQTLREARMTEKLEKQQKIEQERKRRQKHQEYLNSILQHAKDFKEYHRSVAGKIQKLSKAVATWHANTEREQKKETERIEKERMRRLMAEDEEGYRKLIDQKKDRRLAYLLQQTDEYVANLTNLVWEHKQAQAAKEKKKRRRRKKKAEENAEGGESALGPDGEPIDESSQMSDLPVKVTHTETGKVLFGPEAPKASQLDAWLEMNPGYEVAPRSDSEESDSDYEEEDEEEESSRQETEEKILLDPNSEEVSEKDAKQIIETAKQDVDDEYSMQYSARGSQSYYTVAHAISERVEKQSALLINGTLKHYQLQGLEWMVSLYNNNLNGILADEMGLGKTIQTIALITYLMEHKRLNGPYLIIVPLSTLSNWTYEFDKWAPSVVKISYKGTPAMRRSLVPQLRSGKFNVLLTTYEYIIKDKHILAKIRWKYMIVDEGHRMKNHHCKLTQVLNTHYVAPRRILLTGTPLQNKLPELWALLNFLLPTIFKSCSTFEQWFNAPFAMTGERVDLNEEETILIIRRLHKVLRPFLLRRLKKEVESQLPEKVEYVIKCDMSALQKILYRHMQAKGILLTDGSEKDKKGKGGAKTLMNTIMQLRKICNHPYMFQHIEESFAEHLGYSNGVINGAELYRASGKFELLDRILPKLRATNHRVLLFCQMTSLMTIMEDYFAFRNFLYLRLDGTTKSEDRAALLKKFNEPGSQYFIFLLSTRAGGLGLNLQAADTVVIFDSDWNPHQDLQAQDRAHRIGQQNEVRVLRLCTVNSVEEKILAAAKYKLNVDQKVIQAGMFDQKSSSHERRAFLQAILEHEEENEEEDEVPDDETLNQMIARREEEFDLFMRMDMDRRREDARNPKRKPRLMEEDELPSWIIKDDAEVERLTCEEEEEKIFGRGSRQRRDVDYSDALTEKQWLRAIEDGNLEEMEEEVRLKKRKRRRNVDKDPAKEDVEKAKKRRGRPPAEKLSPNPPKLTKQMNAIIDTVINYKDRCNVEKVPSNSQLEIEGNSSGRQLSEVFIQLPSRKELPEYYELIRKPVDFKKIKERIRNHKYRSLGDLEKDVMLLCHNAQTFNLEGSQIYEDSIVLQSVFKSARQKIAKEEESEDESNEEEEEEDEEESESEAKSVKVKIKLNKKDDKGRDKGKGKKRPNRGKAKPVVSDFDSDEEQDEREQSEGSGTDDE
Take `C[C@@]1(C#N)COCc2ccc(C(=O)NCc3cc4nc(-c5cccc(N6CCC6)n5)ccc4cn3)cc21` [Compound 496]: the “BRM Max % Inhibition” value came to 100%.
On the same count and under the same terms, with `C[C@@]1(F)COCc2ccc(C(=O)NCc3cc4nc(-c5ccccc5)ccc4nn3)cc21` [Compound 277] the figure was 96%; with `C[C@@]1(C#N)COCc2ncc(C(=O)NCc3cc4nc(-c5cccc(C6CC6)n5)ccc4cn3)cc21` [Compound 208], 98%; with `C[C@@]1(C#N)COCc2ccc(C(=O)NCc3cc4c(cn3)CCN(c3ccnc(N5CCC5)c3F)C4)cc21` [Compound 258], 96%.
The same measure, in the same setting: as for `CN1C(=O)Cc2ccc(-c3ccc4cnc(CNC(=O)c5ccc6c(c5)[C@](C)(C#N)COC6)cc4n3)cc21` [Compound 476], the figure is 94%.
Still for that read-out and setting: as for `C[C@@]1(C#N)COCc2ccc(C(=O)NCc3cc4nc(-c5ccnc(C6COC6)n5)ccc4cn3)cc21` [Compound 158], the figure is 96%; as for `CNC(=O)c1cccc(-c2ccc3cnc(CNC(=O)c4ccc5c(c4)[C@](C)(C#N)COC5)cc3n2)c1F` [Compound 460], 98%; as for `Cn1ccc2c(F)cc(-c3ccc4cnc(CNC(=O)c5ccc6c(c5)[C@](C)(C#N)COC6)cc4n3)cc2c1=O` [Compound 434], 100%.
For `[2H]C1([2H])OC[C@@](C)(F)c2cc(C(=O)NCc3cc4nc(-c5cncc(C6CC6)n5)ccc4cn3)cnc21` [Compound 211], the “BRM Max % Inhibition” value is recorded as 97%.
Still for that read-out and setting: with `C[C@@]1(C#N)COCc2ccc(C(=O)NCc3cc(N4CC(n5ccc6ccccc65)C4)ccn3)cc21` [Compound 59] the figure was 93%; with `C[C@@]1(C#N)COCc2ccc(C(=O)NCc3cc4nc(-c5cncc(N6CC(F)C6)n5)ccc4cn3)cc21` [Compound 374], 101%.
Same read-out and setting: with `C[C@@]1(C#N)COCc2ccc(C(=O)NCc3cc(N4CCC(F)(c5ccccc5)C4)ccn3)cc21` (stereo partly drawn) [Compound 60] the figure was 93%.
Take `C[C@@]1(C#N)COCc2ccc(C(=O)NCc3cc4cc(-c5nccc(N6CCC6)n5)ccc4nn3)cc21` [Compound 335]: the “BRM Max % Inhibition” value was determined as 101%.
Regarding `C[C@@]1(C#N)COCc2ccc(C(=O)NCc3cc4nc(N5CCCCC5)ccc4cn3)cc21` [Compound 103], the “BRM Max % Inhibition” value is 94%.
Still for that read-out and setting: with `C[C@@]1(C#N)COCc2ccc(C(=O)NCc3cc([C@H]4C[C@H](c5cccc(N6CCOCC6)n5)C4)ccn3)cc21` [Compound 79] the figure was 96%.
In the case of `C[C@@]1(C#N)COc2ccc(C(=O)NCc3cc4nc(-c5ccccc5)sc4cn3)cc21` [Compound 117], the “BRM Max % Inhibition” value worked out at 74%.
On the same count and under the same terms, as for `C[C@@]1(C#N)COCc2ccc(C(=O)NCc3cc4c(cn3)CCN(c3ccnc(C5CC5)n3)C4)cc21` [Compound 327], the figure is 89%.
On the same count and under the same terms, with `C[C@@]1(C#N)COCc2ccc(C(=O)NCc3cc(N4CCc5ccccc5CC4)ccn3)cc21` [Compound 50] the figure was 90%.

Staying with this assay, now noted: BRM ATPase: IC50 (uM), 30 nM BRM, 400 μM ATP.
Regarding `C[C@@]1(C#N)COCc2ccc(C(=O)NCc3cc4nc(-c5cccc(N6CCC6)n5)ccc4cn3)cc21` [Compound 496], the IC50 was below 0.1 µM.
Same read-out and setting: as for `C[C@@]1(F)COCc2ccc(C(=O)NCc3cc4nc(-c5ccccc5)ccc4nn3)cc21` [Compound 277], the figure is 0.1 to 0.5 µM.
The same measure, in the same setting: with `C[C@@]1(C#N)COCc2ncc(C(=O)NCc3cc4nc(-c5cccc(C6CC6)n5)ccc4cn3)cc21` [Compound 208] the figure was below 0.1 µM.
The same measure, in the same setting: as for `C[C@@]1(C#N)COCc2ccc(C(=O)NCc3cc4c(cn3)CCN(c3ccnc(N5CCC5)c3F)C4)cc21` [Compound 258], the figure is 0.1 to 0.5 µM; as for `CN1C(=O)Cc2ccc(-c3ccc4cnc(CNC(=O)c5ccc6c(c5)[C@](C)(C#N)COC6)cc4n3)cc21` [Compound 476], 0.1 to 0.5 µM; as for `C[C@@]1(C#N)COCc2ccc(C(=O)NCc3cc4nc(-c5ccnc(C6COC6)n5)ccc4cn3)cc21` [Compound 158], 0.1 to 0.5 µM.
As to `CNC(=O)c1cccc(-c2ccc3cnc(CNC(=O)c4ccc5c(c4)[C@](C)(C#N)COC5)cc3n2)c1F` [Compound 460], the IC50 was in the range of 0.1 to 0.5 µM.
The same measure, in the same setting: as for `Cn1ccc2c(F)cc(-c3ccc4cnc(CNC(=O)c5ccc6c(c5)[C@](C)(C#N)COC6)cc4n3)cc2c1=O` [Compound 434], the figure is below 0.1 µM; as for `[2H]C1([2H])OC[C@@](C)(F)c2cc(C(=O)NCc3cc4nc(-c5cncc(C6CC6)n5)ccc4cn3)cnc21` [Compound 211], 0.1 to 0.5 µM.
Same read-out and setting: as for `C[C@@]1(C#N)COCc2ccc(C(=O)NCc3cc(N4CC(n5ccc6ccccc65)C4)ccn3)cc21` [Compound 59], the figure is 0.1 to 0.5 µM; as for `C[C@@]1(C#N)COCc2ccc(C(=O)NCc3cc4nc(-c5cncc(N6CC(F)C6)n5)ccc4cn3)cc21` [Compound 374], below 0.1 µM; as for `C[C@@]1(C#N)COCc2ccc(C(=O)NCc3cc(N4CCC(F)(c5ccccc5)C4)ccn3)cc21` (stereo partly drawn) [Compound 60], 0.1 to 0.5 µM.
For `C[C@@]1(C#N)COCc2ccc(C(=O)NCc3cc4cc(-c5nccc(N6CCC6)n5)ccc4nn3)cc21` [Compound 335], the 50% inhibitory concentration (IC50) is below 0.1 µM.
The same measure, in the same setting: as for `C[C@@]1(C#N)COCc2ccc(C(=O)NCc3cc4nc(N5CCCCC5)ccc4cn3)cc21` [Compound 103], the figure is 0.1 to 0.5 µM.
Consider `C[C@@]1(C#N)COCc2ccc(C(=O)NCc3cc([C@H]4C[C@H](c5cccc(N6CCOCC6)n5)C4)ccn3)cc21` [Compound 79], for which the concentration for half-maximal inhibition (IC50) is 0.1 to 0.5 µM.
For `C[C@@]1(C#N)COc2ccc(C(=O)NCc3cc4nc(-c5ccccc5)sc4cn3)cc21` [Compound 117], the IC50 was above 1 µM.
Molecule `C[C@@]1(C#N)COCc2ccc(C(=O)NCc3cc4c(cn3)CCN(c3ccnc(C5CC5)n3)C4)cc21` [Compound 327] showed an IC50 of 0.1 to 0.5 µM.
Same read-out and setting: as for `C[C@@]1(C#N)COCc2ccc(C(=O)NCc3cc(N4CCc5ccccc5CC4)ccn3)cc21` [Compound 50], the figure is 0.1 to 0.5 µM.
